By Emax is commonly meant the maximal effect, on the per cent scale that the assay sets. One may read the EC50 as the concentration that produces a half-maximal response. As usually defined, the melting point is the temperature, or range, at which the solid turns liquid.

The target in one series is human mGluR5 (Homo sapiens, UniProt P41594). The series can be described thus: Cell-based functional Ca2+ mobilization assay (FDSS), potentiation of glutamate EC20 response. Particulars: H10H cell-line (HEK, recombinant human mGluR5); for Emax: glutamate EC20, maximum average response at a single concentration, percent of maximal glutamate response; for EC50: positive allosteric modulation in presence of glutamate EC20, concentration in mol/L. From the text:
Human mGluR5a cDNA in pCMV6-XL6 mammalian expression plasmid was purchased from OriGene Technologies, Inc. (catalogue number SC326357) and subcloned into pcDNA3.1(−). Human embryonic kidney (HEK) 293A cells were then transfected with human mGluR5a pcDNA3.1(−) using LipofectAmine2000 (Invitrogen) and monoclones were selected and tested for functional response using a Ca^2+ mobilization assay. Monoclones were named for the species (“H” for human) plus the location on the plate (e.g. “10H”).
HEK cells transfected with the human mGluR5a receptor (H10H or H12H cell line) were plated at 15,000 cells/well in clear-bottomed poly-D-lysine-coated assay plates (BD Falcon) in glutamate-glutamine-free growth medium and incubated overnight at 37° C. and 5% CO2. Cell-lines used were either the H10H or H12H cell-lines expressing the human mGluR5 receptor. The following day, the growth medium was removed and the cells were washed with assay buffer containing 1× Hank's balanced salt solution (Invitrogen, Carlsbad, Calif.), 20 mM HEPES, 2.5 mM probenecid, pH 7.4 and left with 20 μL of this reagent. Following this step, the cells were loaded with calcium indicator dye, fluo-4 AM, to a final concentration of 2 μM and incubated for 40-45 min at 37° C. The dye solution was removed and replaced with assay buffer. Cell plates were held for 10-15 min at room temperature and were then loaded into the Functional Drug Screening System 6000 (FDSS 6000, Hamamatsu, Japan).
After establishment of a fluorescence baseline for about 3 seconds, the compounds of the present invention were added to the cells, and the response in cells was measured. 2.3 minutes later an EC20 concentration of the mGluR5 receptor agonist glutamate was added to the cells, and the response of the cells was measured for about 1.7 minutes. All test compounds were dissolved and diluted to a concentration of 10 mM in 100% DMSO and then serially diluted into assay buffer for a 2× stock solution in 0.6% DMSO; stock compounds were then added to the assay for a final DMSO concentration of 0.3% after the first addition to the assay well. Calcium fluorescence measures were recorded as fold over basal fluorescence; raw data was then normalized to the maximal response to glutamate. Potentiation of the agonist response of the mGluR5 receptor in the present invention was observed as an increase in response to submaximal concentrations of glutamate in the presence of compound compared to the response to glutamate in the absence of compound.
The concentration-response curves of compounds of the present invention, obtained in the presence of EC20 of mGluR5 receptor agonist glutamate to determine positive allosteric modulation, were generated using Microsoft Excel with IDBS XLFit add-ins. The raw data file containing all time points was used as the data source in the analysis template. This was saved by the FDSS as a tab-delimited text file. Data were normalized using a static ratio function (F/F0) for each measurement of the total 350 values per well divided by each well's initial value. Data was then reduced as to peak amplitudes (Max-Initial Min) using a time range that starts approximately 1 second after the glutamate EC20 addition and continues for approximately 40 seconds. This is sufficient time to capture the peak amplitude of the cellular Calcium response. Individual amplitudes were expressed as % EMax by multiplying each amplitude by 100 and then dividing the product by the mean of the amplitudes derived from the glutamate ECMax-treated wells. pEC50 values for test compounds were generated by fitting the normalized values versus the log of the test compound concentration (in mol/L) using a 4 parameter logistic equation where none of the parameters were fixed. Each of the three values collected at each concentration of test compound were weighted evenly. Individual values falling outside the 95% prediction limits of the curve fit were automatically excluded from the fit. […]
(In general: Calcium flux is commonly read through the fluorescence of an indicator in the cells.)

Sequence of human mGluR5 (P41594 21-1180 isoform P41594-2 limits assumed): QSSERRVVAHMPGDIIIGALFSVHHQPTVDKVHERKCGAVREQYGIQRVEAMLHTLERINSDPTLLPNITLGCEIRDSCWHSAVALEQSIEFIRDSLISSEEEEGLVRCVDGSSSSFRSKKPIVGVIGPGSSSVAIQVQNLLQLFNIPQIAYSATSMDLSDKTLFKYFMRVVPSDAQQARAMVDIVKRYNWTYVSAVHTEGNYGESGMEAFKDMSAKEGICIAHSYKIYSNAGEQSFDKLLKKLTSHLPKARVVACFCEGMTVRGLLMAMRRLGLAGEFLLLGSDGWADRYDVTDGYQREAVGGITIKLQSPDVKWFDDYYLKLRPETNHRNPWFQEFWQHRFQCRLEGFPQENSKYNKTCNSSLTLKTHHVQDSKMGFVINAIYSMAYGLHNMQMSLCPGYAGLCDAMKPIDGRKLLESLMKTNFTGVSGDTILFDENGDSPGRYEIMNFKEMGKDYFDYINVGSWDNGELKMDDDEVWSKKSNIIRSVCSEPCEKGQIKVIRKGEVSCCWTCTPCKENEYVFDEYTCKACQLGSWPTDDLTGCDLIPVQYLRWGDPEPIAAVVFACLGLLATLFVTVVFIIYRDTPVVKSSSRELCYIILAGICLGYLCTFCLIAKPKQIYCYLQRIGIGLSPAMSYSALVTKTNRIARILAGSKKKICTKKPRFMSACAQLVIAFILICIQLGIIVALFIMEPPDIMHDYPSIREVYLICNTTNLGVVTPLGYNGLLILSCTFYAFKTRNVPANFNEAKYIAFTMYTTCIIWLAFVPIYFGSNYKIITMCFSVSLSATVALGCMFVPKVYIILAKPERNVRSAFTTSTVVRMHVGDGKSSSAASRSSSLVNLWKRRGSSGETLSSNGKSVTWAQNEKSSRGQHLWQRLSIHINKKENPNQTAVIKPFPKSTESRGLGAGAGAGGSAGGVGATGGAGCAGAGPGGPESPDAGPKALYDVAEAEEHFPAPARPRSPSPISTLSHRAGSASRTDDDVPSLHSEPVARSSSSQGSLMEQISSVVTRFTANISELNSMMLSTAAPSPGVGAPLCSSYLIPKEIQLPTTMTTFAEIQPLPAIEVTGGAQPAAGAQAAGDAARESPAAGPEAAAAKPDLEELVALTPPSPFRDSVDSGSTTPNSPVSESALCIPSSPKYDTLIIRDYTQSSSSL

Compound `CC1CN([C@H](C)c2ccccc2)C(=O)c2cc(COc3ccccc3)nn21` (single isomer, unassigned) [Example B4, (7*S)-7-methyl-2-(phenoxymethyl)-5-[(1R)-1-phenylethyl]-6,7-dihydropyrazolo[1,5-a]pyrazin-4(5H)-one] yielded a melting point of 132 °C. Moreover, on human mGluR5, the Emax is 68.5% and the EC50 was 55 nM.

For the compound `CC1CN(Cc2ccccc2)C(=O)c2cc(COc3cccc(F)c3)nn21` (single isomer, unassigned) [Example B10, (7*S)-5-benzyl-2-[(3-fluorophenoxy)methyl]-7-methyl-6,7-dihydropyrazolo[1,5-a]pyrazin-4(5H)-one], on human mGluR5, the Emax worked out at 70.5% and the EC50 is 69.2 nM.

On to `CC1CN(Cc2ccccc2)C(=O)c2cc(COc3ccccc3)nn21` (single isomer, unassigned) [Example B14], for which the melting point came out at 97.7 °C. Also, at human mGluR5, the Emax came out at 69.5% and the EC50 is 60.3 nM.

For `CC1CN(Cc2ccccc2)C(=O)c2cc(COc3cccc(C#N)c3)nn21` (single isomer, unassigned) [Example B53], on human mGluR5, the Emax turned out to be 65% and the EC50 was 525 nM.

Turning to `CC1CN(Cc2ccccc2)C(=O)c2cc(COc3ccc(F)cc3)nn21` (single isomer, unassigned) [Example B54], at human mGluR5, the Emax is 69.5% and the EC50 is 93.3 nM.

In the case of `Cc1cccc(OCc2cc3n(n2)C(C)CN(Cc2ccccc2)C3=O)c1` (single isomer, unassigned) [Example B55], the Emax on human mGluR5 came out at 69.5%.

`COc1cccc(CN2CCn3nc(COc4ccccc4)cc3C2=O)n1` [Example B1, 5-[(6-methoxypyridin-2-yl)methyl]-2-(phenoxymethyl)-6,7-dihydropyrazolo[1,5-a]pyrazin-4(5H)-one] came in with a melting point of 97.7 °C. At human mGluR5, the Emax was determined as 68% and the EC50 was 91.2 nM.

`O=C1c2cc(COc3ccccc3)nn2CCCN1Cc1ccccc1` [Example B2, 5-benzyl-2-(phenoxymethyl)-5,6,7,8-tetrahydro-4H-pyrazolo[1,5-a][1,4]diazepin-4-one] returned a melting point of 94.6 °C. Further, at human mGluR5, the Emax came to 64% and the EC50 is 87.1 nM.

The compound `Cc1cccc(CN2CCn3nc(COc4ccccc4)cc3C2=O)n1` [Example B3, 5-[(6-methylpyridin-2-yl)methyl]-2-(phenoxymethyl)-6,7-dihydropyrazolo[1,5-a]pyrazin-4(5H)-one] had a melting point of 113.4 °C. Besides, on human mGluR5, the Emax was found to be 68% and the EC50 is 302 nM.

The compound `O=C1c2cc(COc3ccccc3)nn2CCN1Cc1ccc(F)cn1` [Example B5, 5-[(5-fluoropyridin-2-yl)methyl]-2-(phenoxymethyl)-6,7-dihydropyrazolo[1,5-a]pyrazin-4(5H)-one] showed a melting point of 126.5 °C. On human mGluR5, the maximum response (Emax) stood at 69% and the EC50 is 550 nM.

In the case of `O=C1c2cc(COc3ccccc3)nn2CCN1Cc1ncccc1Cl` [Example B6, 5-[(3-chloropyridin-2-yl)methyl]-2-(phenoxymethyl)-6,7-dihydropyrazolo[1,5-a]pyrazin-4(5H)-one], on human mGluR5, the Emax was 76% and the EC50 was 120 nM.

For `O=C1c2cc(COc3ccccc3)nn2CCN1Cc1ccccc1` [Example B7, 5-benzyl-2-(phenoxymethyl)-6,7-dihydropyrazolo[1,5-a]pyrazin-4(5H)-one], the melting point is 91.5 °C. Further, at human mGluR5, the Emax was 69% and the EC50 is 49 nM.

On to `C[C@H](c1ccccc1)N1CCn2nc(COc3ccccc3)cc2C1=O` [Example B8, 2-(phenoxymethyl)-5-[(1R)-1-phenylethyl]-6,7-dihydropyrazolo[1,5-a]pyrazin-4(5H)-one], for which, on human mGluR5, the Emax came to 59.5% and the EC50 was 30.9 nM.

As to `O=C1c2cc(COc3ccccn3)nn2CCN1Cc1ccccc1` [Example B9, 5-benzyl-2-[(pyridin-2-yloxy)methyl]-6,7-dihydropyrazolo[1,5-a]pyrazin-4(5H)-one], the melting point was found to be 124.7 °C. Further, on human mGluR5, the Emax was 62% and the EC50 is 347 nM.

On to `O=C1c2cc(COc3cccc(F)c3)nn2CCN1Cc1ccccc1` [Example B11, 5-benzyl-2-[(3-fluorophenoxy)methyl]-6,7-dihydropyrazolo[1,5-a]pyrazin-4(5H)-one], for which the melting point turned out to be 104.9 °C. On human mGluR5, the Emax turned out to be 63% and the EC50 was 46.8 nM.

`COc1cnc(CN2CCn3nc(COc4ccccc4)cc3C2=O)nc1` [Example B12] displayed a melting point of more than 300 °C. Also, on human mGluR5, the Emax turned out to be 59.5% and the EC50 was 30.9 nM.

`CC(c1cccnc1)N1CCn2nc(COc3ccccc3)cc2C1=O` (centres unmarked) [Example B13]: the melting point was > 300 °C (dec.). Moreover, at human mGluR5, the Emax came to 60% and the EC50 is 1660 nM.

As to `O=C1c2cc(COc3ccccc3)nn2CCN1Cc1ccccn1` [Example B17], the melting point came to 75.3 °C. Moreover, on human mGluR5, the Emax worked out at 69.5% and the half-maximal effective concentration (EC50) is 1120 nM.

As for `O=C1c2cc(COc3ccccc3)nn2CCN1Cc1cccnc1` [Example B18], the melting point came to 123.4 °C. Moreover, on human mGluR5, the Emax stood at 63% and the EC50 is 1910 nM.

`O=C1c2cc(COc3ccccc3)nn2CCN1Cc1ccccc1F` [Example B19] showed a melting point of 110.6 °C. Moreover, on human mGluR5, the Emax worked out at 69.5% and the EC50 is 43.7 nM.

On to `O=C1c2cc(COc3ccccc3)nn2CCN1Cc1cccc(F)c1` [Example B20], for which the melting point worked out at 95 °C. Moreover, at human mGluR5, the Emax was 65% and the EC50 was 47.9 nM.

In the case of `COc1ccc(CN2CCn3nc(COc4ccccc4)cc3C2=O)cc1` [Example B34], at human mGluR5, the Emax stood at 69% and the EC50 was 209 nM.

For `COc1ccccc1CN1CCn2nc(COc3ccccc3)cc2C1=O` [Example B38], at human mGluR5, the Emax turned out to be 63.5% and the EC50 is 40.7 nM.

As to `N#Cc1cccc(OCc2cc3n(n2)CCN(Cc2ccccc2)C3=O)c1` [Example B43], on human mGluR5, the Emax worked out at 53% and the EC50 was 380 nM.

Turning to `C[C@@H]1Cn2nc(COc3cccc(F)c3)cc2C(=O)N1Cc1ccccc1` [Example B49], on human mGluR5, the Emax came to 73% and the EC50 was 93.3 nM.

`C[C@@H]1Cn2nc(COc3ccccn3)cc2C(=O)N1Cc1ccccc1` [Example B56]: at human mGluR5, the Emax was found to be 70% and the EC50 is 1000 nM.

In the case of `Cc1cccc(OCc2cc3n(n2)C[C@@H](C)N(Cc2ccccc2)C3=O)c1` [Example B57], on human mGluR5, the Emax was 64.5% and the EC50 was 186 nM.

On to `C[C@@H]1Cn2nc(COc3cccc(C#N)c3)cc2C(=O)N1Cc1ccccc1` [Example B58], for which, at human mGluR5, the Emax worked out at 59% and the EC50 was 468 nM.

On to `COc1cccc(CN2CCn3nc(COc4ccccc4)cc3C2=O)c1F` [Example B59], for which, on human mGluR5, the Emax turned out to be 71% and the EC50 was 107 nM.

On to `COc1cccc(CN2CCn3nc(COc4ccccc4)cc3C2=O)c1Cl` [Example B60], for which, on human mGluR5, the Emax was determined as 75.5% and the EC50 was 79.4 nM.

Take `COc1ccc(F)cc1CN1CCn2nc(COc3ccccc3)cc2C1=O` [Example B61]: on human mGluR5, the Emax came to 66% and the EC50 was 85.1 nM.

Take `O=C1c2cc(COc3ccccc3)nn2CCN1Cc1ncc(F)cn1` [Example B70]: on human mGluR5, the Emax came out at 66% and the EC50 is 398 nM.

Regarding `O=C1c2cc(COc3ccccc3)nn2CCN1Cc1ccncc1` [Example B102], at human mGluR5, the Emax came to 68% and the EC50 was 1780 nM.

The values above are taken from patent publication US20130345205A1, “SUBSTITUTED BICYCLIC ARALKYL PYRAZOLE LACTAM ANALOGS AS ALLOSTERIC MODULATORS OF MGLUR5 RECEPTORS” (Vanderbilt University, priority 2012, published 2013).
